Measured values published in patent US20100035257A1 (GENERAL HOSPITAL, published 2010).
Changes are numbered by the printed parent chain. One block for each molecule: values may come before it.

How the values were obtained:
[1] = test system: HCC-1937 cells; assay: Chemosensitivity assay (MTT cell viability); assay type: cell-based, human
Method: (§1) Chemosensitivity assay. Dose-response curves and IC50 values were determined using the methyl thiazolyl tetrazolium (MTT) cell viability assay as described previously (52). Cells were seeded into 96-well microtiter plates for 24 hours at a density of 5×10^3 per well. Serial drug dilutions were prepared in medium immediately before each assay and viable cell masses following 3 days or 5 days of drug exposure were determined by cell-mediated MTT reduction. Cell growth as well as drug activity were determined by measuring absorbance at 550 nm using an Anthos Labtec systems plate reader.

[2] = test system: MDA-MB-468 cells; assay: Chemosensitivity assay (MTT cell viability); assay type: cell-based, human
Method: as §1

[3] = test system: PUMA and NOXA; assay: QRT-PCR of pro-apoptotic effector genes after drug treatment; assay type: cell-based, human
Method: ORT-PCR analysis. Total RNA from cells was extracted using STAT-60 RNA isolation solution (Tel-Test Inc., Friendswood, USA) according to manufacturer's protocol. First-strand cDNA was synthesized from total RNA using random hexamer primers and the SuperScript II system for RT-PCR (Invitrogen). Gene expression levels were measured by real-time QRT-PCR using the iQ SYBR Green Supermix reagent (Bio-Rad) and an OPTICON™ real-time PCR detector system (MJ Research). Data analysis was performed using OPTICON MONITOR™ Analysis Software V1.08 (MJ Research). The expression of each gene was normalized to GAPDH or B2M as a reference. The relative copy numbers were calculated from an 8-point standard curve generated from a ten fold serial dilution of full length cDNA constructs as described previously (15).
Specific forward and reverse primers (respectively) for ΔNp63 were: 5′-[…]-3′ and 5′-[…]-3′; for TAp63 were 5′-[…]-3′ and 5′-[…]-3′; for TAp73 were 5′-[…]-3′ and […]-3′; for ΔNp73 were 5′-[…]-3′ and 5′-[…]-3′; for GAPDH were: 5′-[…]-3′ and 5′-[…]-3′ and for detection of B2M were 5′-[…]-3′ and 5′-[…]-3′. The conditions for all QRT-PCR reactions were: 3 min at 94° C., followed by 40 sec at 94° C., 40 sec at 60° C. and 25 sec at 72° C. for 40 cycles. All PCR products were confirmed by the presence of a single-peak upon melting-curve analysis and by gel electrophoresis. No-template (water) reaction mixtures and “no reverse transcriptase” mixtures were performed on all samples as negative controls. All experiments were performed in duplicate.

[4] = test system: ΔNp63α/TAp73 complex; assay: Co-immunoprecipitation of the ΔNp63α/TAp73 complex
[5] = test system: MCF-10A cells; assay: Chemosensitivity assay (MTT cell viability); assay type: cell-based, human; conditions: for effect of ectopic TAp73β expression on sensitivity: retroviral TAp73β vs control vector
Method: as §1

[6] = test system: MCF-7 cells; assay: Chemosensitivity assay (MTT cell viability); assay type: cell-based, human; conditions: TAp73 knockdown
Method: as §1

[7] = test system: human breast cancer-derived cell lines; assay: p73/p63 biomarker and in vitro cisplatin sensitivity; assay type: cell-based; conditions: Biomarker Positive cell lines
Method: as §1
Correlation of DNp63/TAp73 biomarker expression and cisplatin sensitivity in vitro. The inventors next established the threshold for DNp63/TAp73 biomarker expression that reflected the biochemcially-defined cisplatin sensitivity pathway. The inventors defined biomarker positivity as a DNp63/TAp73 ratio >2, a value that corresponds to the molar ratio of DNp63 required to inactivate essentially all (>99%) pro-apoptotic TAp73 through DNp63/TAp73 hetero-tetramer formation. The inventors assessed the ability of this defined biomarker threshold to predict cisplatin sensitivity in a limited number of human breast cancer-derived cell lines. As shown below in Table 2, the positively for the biomarker correlated with cisplatin sensitivity in these cells. […]

[8] = test system: TAp73; assay: IP/immunoblot for p73 tyrosine phosphorylation
[9] = target: T1, wild-type TAp73α (retrovirally expressed in MCF-10A cells) (human, UniProt O15350 1-636); assay: co-IP, MCF-10A cells, untreated
T1 construct: Ectopic wild-type TAp73α expressed via retrovirus in MCF-10A cells; It is tyrosine phosphorylated after cisplatin treatment; Construct limits and tags are not described; also called retroviral TAp73α
T1 sequence: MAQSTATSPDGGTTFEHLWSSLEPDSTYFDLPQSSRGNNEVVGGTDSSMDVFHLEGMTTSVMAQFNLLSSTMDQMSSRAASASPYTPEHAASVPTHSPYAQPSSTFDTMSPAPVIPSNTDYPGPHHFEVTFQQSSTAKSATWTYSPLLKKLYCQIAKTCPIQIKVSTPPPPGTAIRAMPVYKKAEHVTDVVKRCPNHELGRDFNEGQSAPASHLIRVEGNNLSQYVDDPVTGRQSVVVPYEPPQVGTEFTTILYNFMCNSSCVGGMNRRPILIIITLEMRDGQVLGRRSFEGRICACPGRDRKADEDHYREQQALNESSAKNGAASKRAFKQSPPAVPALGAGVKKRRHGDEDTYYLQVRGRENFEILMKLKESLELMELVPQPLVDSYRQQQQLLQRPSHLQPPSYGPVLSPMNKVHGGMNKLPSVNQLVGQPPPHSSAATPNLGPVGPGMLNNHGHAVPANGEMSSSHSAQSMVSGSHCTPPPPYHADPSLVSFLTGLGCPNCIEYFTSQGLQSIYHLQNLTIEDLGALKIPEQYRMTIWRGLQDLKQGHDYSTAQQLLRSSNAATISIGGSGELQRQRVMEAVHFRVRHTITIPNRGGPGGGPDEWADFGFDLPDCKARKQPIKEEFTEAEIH

[10] = target: T2, Y99F TAp73α (human, UniProt O15350 1-636); assay: IP for p63 or p73 with immunoblot, MCF-10A cells with retroviral Y99F TAp73α, after cisplatin
T2 construct: Expressed via retrovirus in MCF-10A cells; also called site-specific Y99F mutant TAp73α
T2 sequence: T1 sequence with Y99F

[11] = MCF-10A cells, cisplatin treatment

Molecule: Cc1ccc(NC(=O)c2ccc(CN3CCN(C)CC3)cc2)cc1Nc1nccc(-c2cccnc2)n1 [STI-571, Imatinib]
cell proliferation ([1]; HCC-1937, at the dose used in these assays): did not affect
rescue from cell death induced by cisplatin ([1]; pretreatment, then cisplatin, HCC-1937): substantial rescue
cell proliferation ([2]; MDA-MB-468, at the dose used in these assays): did not affect
rescue from cell death induced by cisplatin ([2]; pretreatment, then cisplatin, MDA-MB-468): substantial rescue
baseline NOXA expression ([3]; HCC-1937 and MDA-MB-468 cells): no effect
p73-dependent induction of NOXA following cisplatin treatment ([3]; pretreatment, HCC-1937 and MDA-MB-468 cells, 6 hours): blocked

Molecule: N.N.[Cl][Pt][Cl] [cisplatin, cis-diaminedichloroplatinuim (II)]
dissociation of Y99F TAp73 from ΔNp63α ([4]; MCF-10A cells, 6 hours): essentially no dissociation
dissociation of ΔNp63α from wild-type TAp73 ([4]; MCF-10A cells, 6 hours): substantial dissociation
dissociation of the ΔNp63α/TAp73 complex ([4]; endogenous proteins, breast cancer cells, following treatment): substantial dissociation
IC70 dose ([1]; HCC-1937 cells): 6.6 µM
effect of TAp73 knockdown on the IC50 ([1]; TAp73-directed lentiviral shRNA vs vector control, HCC-1937): more than 10 fold
effect of Y99F TAp73 expression on sensitivity [5]: little, if any, effect
effect of wild-type TAp73 expression on sensitivity ([5]; P<0.01): significantly increased sensitivity
effect of ectopic TAp73β expression on sensitivity [5]: significantly increased the sensitivity
effect of TAp73 knockdown on the IC50 ([2]; TAp73-directed lentiviral shRNA vs vector control, MDA MB-468): more than 10 fold
TAp73 as mediator of sensitivity [6]: not a mediator of sensitivity
induction of PUMA and NOXA ([3]; HCC-1937 cells, following treatment): robustly induced
time to TAp73-dependent transcription of PUMA and NOXA ([3]; after cisplatin treatment): ≤ 2 h
Percent Sensitive [7]: 57% ( 4/7)
tyrosine phosphorylation of p73 ([8]; HCC-1937 and MB-468 cells, maximal at 6 hours): tyrosine phosphorylation of p73 was observed
phosphorylation of Y99F TAp73 [8, 11]: little detectable phosphorylation
phosphorylation of ectopic wild-type TAp73 [8, 11]: strongly phosphorylated

Molecule: COc1cccc2c1C(=O)c1c(O)c3c(c(O)c1C2=O)C[C@@](O)(C(=O)CO)C[C@@H]3O[C@H]1C[C@H](N)[C@H](O)[C@H](C)O1 [doxorubicin]
effect of ectopic TAp73β expression on sensitivity [5]: did not significantly enhance sensitivity
induction of other pro-apoptotic effectors ([3]; equally toxic concentration): no significant induction
increase in PUMA ([3]; equally toxic concentration as cisplatin): 2 fold

Molecule: CC(=O)O[C@H]1C(=O)[C@@]2(C)[C@H]([C@H](OC(=O)c3ccccc3)[C@]3(O)C[C@H](OC(=O)[C@H](O)[C@@H](NC(=O)c4ccccc4)c4ccccc4)C(C)=C1C3(C)C)[C@]1(OC(C)=O)CO[C@@H]1C[C@@H]2O [paclitaxel]
effect of ectopic TAp73β expression on sensitivity [5]: did not significantly enhance sensitivity

binding result [9]: binds
binding result [10]: binds
B1: ΔNp63α (other)
chain: MLYLENNAQTQFSEPQYTNLGLLNSMDQQIQNGSSSTSPYNTDHAQNSVTAPSPYAQPSSTFDALSPSPAIPSNTDYPGPHSFDVSFQQSSTAKSATWTYSTELKKLYCQIAKTCPIQIKVMTPPPQGAVIRAMPVYKKAEHVTEVVKRCPNHELSREFNEGQIAPPSHLIRVEGNSHAQYVEDPITGRQSVLVPYEPPQVGTEFTTVLYNFMCNSSCVGGMNRRPILIIVTLETRDGQVLGRRCFEARICACPGRDRKADEDSIRKQQVSDSTKNGDGTKRPFRQNTHGIQMTSIKKRRSPDDELLYLPVRGRETYEMLLKIKESLELMQYLPQHTIETYRQQQQQQHQHLLQKQTSIQSPSSYGNSSPPLNKMNSMNKLPSVSQLINPQQRNALTPTTIPDGMGANIPMMGTHMPMAGDMNGLSPTQALPPPLSMPSTSHCTPPPPYPTDCSIVSFLARLGCSSCLDYFTTQGLTTIYQIEHYSMDDLASLKIPEQFRHAIWKGILDHRQLHEFSSPSHLLRTPSSASTVSVGSSETRGERVIDAVRFTLRQTISFPPRDEWNDFNFDMDARRNKQQRIKEEGE
notes: The text mentions hetero-tetramers with TAp73, but the stoichiometry was not measured; also called DNp63a; DNp63α
